Read-outs that look alike come from different tables or passages of the source.
What was measured:
tumor cell lines = details: broad range of tumor cell lines; cited from earlier work
A2780 cells = test: In-Vitro Cell Proliferation Assay (SRB); details: Homo sapiens, A2780, 72 h
NAMPT = NAMPT (Homo sapiens (Human), UniProt P43490); test: Biochemical Inhibition Assay (NAMPT enzymatic reaction, NMN quantified by mass spectrometry); details: 33 nM recombinant His-tagged NAMPT, 1 μM NAM, 30 min at rt
Outline: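 His-tagged human NAMPT from E. coli preincubated 15 min at rt with compound in 50 mM Hepes pH 7.5, 50 mM NaCl, 5 mM MgCl2, 1 mM THP, then reacted 30 min at rt with 1 μM NAM, […] PRPP, 2.5 mM ATP. NMN quantified by RapidFire mass spectrometry, normalized to L-Cystathionine, background subtracted.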

mouse mammary carcinoma = mouse mammary carcinoma model; cited from earlier work
[1] = read-out: Cell Proliferation (IC50)
[2] = read-out: Cell Proliferation (IC50), A2780 cells, 72 h, sulforhodamine B

NAMPT, sequence (P43490 whole entry): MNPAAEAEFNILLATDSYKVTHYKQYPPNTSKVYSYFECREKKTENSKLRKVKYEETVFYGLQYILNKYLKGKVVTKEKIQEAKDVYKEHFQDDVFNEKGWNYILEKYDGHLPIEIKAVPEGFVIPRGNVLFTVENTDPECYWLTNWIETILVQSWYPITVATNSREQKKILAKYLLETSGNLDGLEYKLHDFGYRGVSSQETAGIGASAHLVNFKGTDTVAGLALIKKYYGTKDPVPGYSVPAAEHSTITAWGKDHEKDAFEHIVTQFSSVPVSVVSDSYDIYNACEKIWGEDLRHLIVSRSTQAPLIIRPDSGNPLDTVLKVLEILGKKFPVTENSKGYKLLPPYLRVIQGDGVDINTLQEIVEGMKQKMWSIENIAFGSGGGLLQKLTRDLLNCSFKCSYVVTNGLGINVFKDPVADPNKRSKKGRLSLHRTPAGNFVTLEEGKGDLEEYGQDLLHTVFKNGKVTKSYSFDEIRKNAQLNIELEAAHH

Row | Structure (SMILES) | IC50 (A2780 cells; [1]) [nM] | IC50 (NAMPT) [nM] | other results
1 | N#CN=C(NCCCCCCOc1ccc(Cl)cc1)Nc1ccncc1 [CHS-828] | – | – | cell growth (tumor cell lines): potently inhibit cell growth
2 | CCCC(=O)N1CCC(S(=O)(=O)c2ccc(CNC(=O)N3Cc4ccncc4C3)nc2)CC1 [Example 108, 1,3-Dihydro-pyrrolo[3,4-c]pyridine-2-carboxylic acid [5-(1-butyryl-piperidine-4-sulfonyl)-pyridin-2-ylmethyl]-amide] | 358 | 27.7 | –
3 | O=C(NCc1ccc(S(=O)(=O)c2cccc(OC(F)(F)F)c2)cn1)c1cc2ccncc2o1 [Example 23, Furo[2,3-c]pyridine-2-carboxylic acid [5-(3-trifluoromethoxy-benzenesulfonyl)-pyridin-2-ylmethyl)-amide] | 10.8 | 6.1 | –
4 | O=C(/C=C/c1cccnc1)NCCCCC1CCN(C(=O)c2ccccc2)CC1 [FK866] | – | – | NAD levels (mouse mammary carcinoma): reduce NAD levels; tumor growth (mouse mammary carcinoma): induce a delay in tumor growth; tumor radiosensitivity (mouse mammary carcinoma): enhance tumor radiosensitivity
5 | O=C(NCc1ccc([S+]([O-])c2cccc(C(F)(F)F)c2)cn1)N1Cc2ccncc2C1 (centres unmarked) [Example 120, N-[[5-[3-(trifluoromethyl)phenyl]sulfinyl-2-pyridyl]methyl]-1,3-dihydropyrrolo[3,4-c]pyridine-2-carboxamide] | 7.59 | 11.7 | –
6 | O=C(NCc1ccc(S(=O)(=O)N2CCCCC2)cn1)N1Cc2cn[nH]c2C1 [Example 180, N-[[5-(1-piperidylsulfonyl)-2-pyridyl]methyl]-4,6-dihydro-1H-pyrrolo[3,4-c]pyrazole-5-carboxamide] | 2000 | 562 | –
7 | O=C(NCc1ccc(S(=O)(=O)c2cccc(C(F)(F)F)c2)cn1)N1Cc2ccncc2C1 [Example 49, 1,3-Dihydro-pyrrolo[3,4-c]pyridine-2-carboxylic acid [5-(3-trifluoromethyl-benzenesulfonyl)-pyridin-2-ylmethyl]-amide] | 34.5 | 3.7 | –
8 | CCS(=O)(=O)c1cccc(S(=O)(=O)c2ccc(CNC(=O)N3Cc4ccncc4C3)nc2)c1 [Example 114, N-[[5-(3-ethylsulfonylphenyl)sulfonyl-2-pyridyl]methyl]-1,3-dihydropyrrolo(3,4-c]pyridine-2-carboxamide] | 134 | 2.12 | –

Further compounds by falling IC50 (NAMPT), results first:

Row | IC50 (A2780 cells; [1]) [nM] | IC50 (NAMPT) [nM] | Structure (SMILES) | other results
9 | 85.2 | 75.7 | O=C(NCc1ccc(S(=O)(=O)N2CCC(N3CCCC3)CC2)cn1)N1Cc2ccncc2C1 [Example 148, N-[[5-[(4-pyrrolidin-1-yl-1-piperidyl)sulfonyl]-2-pyridyl]methyl]-1,3-dihydropyrrolo[3,4-c]pyridine-2-carboxamide] | –
10 | 551 | 59.4 | O=C(NCc1ccc(S(=O)(=O)c2ccc(C(F)(F)F)nc2)cn1)c1cc2ccncc2s1 [Example 78, Thieno[2,3-c]pyridine-2-carboxylic acid [5-(6-trifluoromethyl-pyridine-3-sulfonyl)-pyridin-2-ylmethyl]-amide] | –
11 | 1200 | 54.7 | Cn1cc(S(=O)(=O)c2ccc(CNC(=O)N3Cc4ccncc4C3)nc2)cn1 [Example 99, 1,3-Dihydro-pyrrolo[3,4-c]pyridine-2-carboxylic acid [5-(1-methyl-1H-pyrazole-4-sulfonyl)-pyridin-2-ylmethyl]-amide] | –
12 | – | 27.5 | O=C(NCc1ccc(S(=O)(=O)C2CCCCC2)cn1)N1Cc2ccncc2C1 [Example 59, 1,3-Dihydro-pyrrolo[3,4-c]pyridine-2-carboxylic acid (5-cyclohexanesulfonyl-pyridin-2-ylmethyl)-amide] | IC50 (A2780 cells; [2]): 237 nM
13 | 76.5 | 17.3 | O=C(NCc1ccc(S(=O)(=O)c2cc(F)cc(F)c2)cn1)N1Cc2ccncc2C1 [Example 73, 1,3-Dihydro-pyrrolo[3,4-c]pyridine-2-carboxylic acid [5-(3,5-difluoro-benzenesulfonyl)-pyridin-2-ylmethyl]-amide] | –
14 | 2.87 | 10.1 | CCN(C)c1ncc(S(=O)(=O)c2ccc(CNC(=O)c3ccc4nccn4c3)nc2)s1 [Example 145, N-[[5-[2-[ethyl(methyl)amino]thiazol-5-yl]sulfonyl-2-pyridyl]methyl]imidazo[1,2-a]pyridine-6-carboxamide] | –
15 | – | 5.24 | O=C(NCc1ccc(S(=O)(=O)C2CCN(CC(F)(F)F)CC2)cn1)c1cc2ccncc2o1 [Example 131, N-[[5-[[1-(2,2,2-trifluoroethyl)-4-piperidyl]sulfonyl]-2-pyridyl]methyl]furo[2,3-c]pyridine-2-carboxamide] | IC50 (A2780 cells; [2]): 24.4 nM
16 | – | 2.8 | O=C(NCc1ccc(S(=O)(=O)c2ccc(N3CCOCC3)cc2)cn1)c1cc2ccncc2s1 [Example 39, Thieno[2,3-c]pyridine-2-carboxylic acid [5-(4-morpholin-4-yl-benzenesulfonyl)-pyridin-2-ylmethyl]-amide] | IC50 (A2780 cells; [2]): 0.8 nM
